Assay results: patent publication US9371336B2, “Compounds for treating spinal muscular atrophy” (PTC Therapeutics Inc., priority 2012, dated 2016)

How the values were obtained:
[1] = test system: SMN2 minigene mRNA (SMN2-A minigene construct); experiment: SMN2 minigene mRNA splicing RT-qPCR assay in cultured cells; assay type: cell-based, human; conditions: Homo sapiens, HEK293-H; HEK293H cells stably transfected with SMN2-A minigene, 24 hours, 7-point concentration data; concentration giving 1.5-fold SMN2 full length mRNA relative to vehicle-treated cells; read-out: EC1.5x for production of full length SMN2 mRNA
Protocol: The reverse transcription-quantitative PCR-based (RT-qPCR) assay is used to quantify the level of the full length SMN2 minigene mRNA containing SMN2 exon 7 in a HEK293H cell line stably transfected with said minigene and treated with a test compound.
HEK293H cells stably transfected with the SMN2-A minigene construct described above (10,000 cells/well) are seeded in 200 μL of cell culture medium (DMEM plus 10% FBS, with 200 μg/mL hygromycin) in 96-well flat-bottom plates and the plate is immediately swirled to ensure proper dispersal of cells, forming an even monolayer of cells. Cells are allowed to attach for at least 4-6 hours. Test compounds are serially diluted 3.16-fold in 100% DMSO to generate a 7-point concentration curve. A solution of test compound (1 μL, 200× in DMSO) is added to each cell-containing well and the plate is incubated for 24 hours in a cell culture incubator (37° C., 5% CO2, 100% relative humidity). Two replicates are prepared for each test compound concentration. The cells are then lysed in Cells-To-Ct lysis buffer and the lysate is stored at −80° C.
Primer SMN Forward A (SEQ ID NO. 1) hybridizes to a nucleotide sequence in exon 7 (nucleotide 22 to nucleotide 40), primer SMN Reverse A (SEQ ID NO. 2) hybridizes to a nucleotide sequence in the coding sequence of Firefly luciferase, SMN Probe A (SEQ ID NO. 3) hybridizes to a nucleotide sequence in exon 7 (nucleotide 50 to nucleotide 54) and exon 8 (nucleotide 1 to nucleotide 21). The combination of these three oligonucleotides detects only SMN1 or SMN2 minigenes (RT-qPCR) and will not detect endogenous SMN1 or SMN2 genes.
The SMN forward and reverse primers are used at final concentrations of 0.4 μM. The SMN probe is used at a final concentration of 0.15 μM. The GAPDH primers are used at final concentrations of 0.2 μM and the probe at 0.15 μM.
The SMN2-minigene GAPDH mix (15 μL total volume) is prepared by combining 7.5 μL of 2×RT-PCR buffer, 0.4 μL of 25×RT-PCR enzyme mix, 0.75 μL of 20×GAPDH primer-probe mix, 4.0075 μL of water, 2 μL of 10-fold diluted cell lysate, 0.06 μL of 100 μM SMN forward primer, 0.06 μL of 100 μM SMN reverse primer, and 0.225 μL of 100 μM SMN probe.
PCR is carried out at the following temperatures for the indicated time: Step 1: 48° C. (15 min); Step 2: 95° C. (10 min); Step 3: 95° C. (15 sec); Step 4: 60° C. (1 min); then repeat Steps 3 and 4 for a total of 40 cycles.
Each reaction mixture contains both SMN2-A minigene and GAPDH primers/probe sets (multiplex design), allowing simultaneous measurement of the levels of two transcripts.
Two SMN spliced products are generated from the SMN2 minigene. The first spliced product containing exon 7, corresponding to SMN2 full length mRNA, is referred to herein using the term “SMN2 minigene FL.” The second spliced product lacking exon 7 is referred to herein using the term “SMN2 minigene Δ7.”
The increase of SMN2 minigene FL mRNA relative to that in cells treated with vehicle control is determined from real-time PCR data using a modified ΔΔCt method (as described in Livak and Schmittgen, Methods, 2001, 25:402-8). The amplification efficiency (E) is calculated from the slope of the amplification curve for SMN2 minigene FL and GAPDH individually. The abundances of SMN2 minigene FL and GAPDH are then calculated as (1+E)^−Ct, where Ct is the threshold value for each amplicon. The abundance of SMN2 minigene FL is normalized to GAPDH abundance. The normalized SMN2 minigene FL abundance from test compound-treated samples is then divided by normalized SMN2 minigene FL abundance from vehicle-treated cells to determine the level of SMN2 FL mRNA relative to vehicle control.

[2] = test system: Smn protein; experiment: Smn protein assay (HTRF) in cultured cells (SMA patient fibroblasts GM03813); assay type: cell-based, human; conditions: 48 hours; for EC1.5x for Smn protein expression: SMA patient fibroblast cells (GM03813), HTRF, 7-point concentration data, concentration producing 1.5 times Smn protein vs DMSO vehicle control; for maximum fold (Fold) increase of Smn protein: SMA patient fibroblast cells, 7-point concentration curve, relative to vehicle control
Protocol: The Smn HTRF (homogeneous time resolved fluorescence) assay is used to quantify the level of Smn protein in SMA patient fibroblast cells treated with test compounds.
Cells are thawed and cultured in DMEM-10% FBS for 72 hours. Cells are trypsinized, counted and re-suspended to a concentration of 25,000 cells/mL in DMEM-10% FBS. The cell suspension is plated at 5,000 cells per well in a 96 well microtiter plate and incubated for 3 to 5 hours. […] Test compounds are serially diluted 3.16-fold in 100% DMSO to generate a 7-point concentration curve. 1 μL of test compound solution is transferred to cell-containing wells and cells are incubated for 48 hours in a cell culture incubator (37° C., 5% CO2, 100% relative humidity). Triplicate samples are set up for each test compound concentration. After 48 hours, the supernatant is removed from the wells and 25 μL of the RIPA lysis buffer, containing protease inhibitors, is added to the wells and incubated with shaking at room temperature for 1 hour. 25 μL of the diluent is added and then 35 μL of the resulting lysate is transferred to a 384-well plate, where each well contains 5 μL of the antibody solution (1:100 dilution of anti-SMN d2 and anti-SMN kryptate in SMN reconstitution buffer). The plate is centrifuged for 1 minute to bring the solution to the bottom of the wells, then incubated overnight at room temperature. Fluorescence for each well of the plate at 665 nm and 620 nm is measured on an EnVision multilabel plate reader (Perkin-Elmer).
The normalized fluorescence signal is calculated for each sample, Blank and vehicle control well by dividing the signal at 665 nm by the signal at 620 nm. Normalizing the signal accounts for possible fluorescence quenching due to the matrix effect of the lysate. The ΔF value (a measurement of Smn protein abundance as a percent value) for each sample well is calculated by subtracting the normalized average fluorescence for the Blank control wells from the normalized fluorescence for each sample well, then dividing this difference by the normalized average fluorescence for the Blank control wells and multiplying the resulting value by 100. The ΔF value for each sample well represents the Smn protein abundance from test compound-treated samples. The ΔF value for each sample well is divided by the ΔF value for the vehicle control wells to calculate the fold increase in Smn protein abundance relative to the vehicle control.

Row | Compound | EC (1.5-fold) [1] | EC1.5x for Smn protein expression [2] | maximum fold (Fold) increase of Smn protein [2]
1 | Cc1ccn2cc(-c3cc4ccc(N5CCNC[C@@H]5C)nc4oc3=O)nc2c1 [Cpd 59, 3-(7-methylimidazo[1,2-a]pyridin-2-yl)-7-[(2S)-2-methylpiperazin-1-yl]-2H-pyrano[2,3-b]pyridin-2-one] | ≤ 0.1 µM | **** (an EC1.5×≦0.3 μM is indicated by four stars (****)) | **** (a fold increase between >1.5 and ≦1.65 is indicated by four stars (****))
2 | C[C@H]1CNCCN1c1ccc2cc(-c3cn4cccc(F)c4n3)c(=O)oc2n1 [Cpd 63, 3-(8-fluoroimidazo[1,2-a]pyridin-2-yl)-7-[(2S)-2-methylpiperazin-1-yl]-2H-pyrano[2,3-b]pyridin-2-one] | ≤ 0.1 µM | **** (an EC1.5×≦0.3 μM is indicated by four stars (****)) | **** (a fold increase between >1.5 and ≦1.65 is indicated by four stars (****))
3 | C[C@H]1CN(c2ccc3cc(-c4cn5cccc(F)c5n4)c(=O)oc3n2)CCN1 [Cpd 64, 3-(8-fluoroimidazo[1,2-a]pyridin-2-yl)-7-[(3S)-3-methylpiperazin-1-yl]-2H-pyrano[2,3-b]pyridin-2-one] | ≤ 0.1 µM | **** (an EC1.5×≦0.3 μM is indicated by four stars (****)) | **** (a fold increase between >1.5 and ≦1.65 is indicated by four stars (****))
4 | Cc1ccc2nc(-c3cc4ccc(N5CCN[C@@H](C)C5)nc4oc3=O)cn2c1 [Cpd 72, 3-(6-methylimidazo[1,2-a]pyridin-2-yl)-7-[(3S)-3-methylpiperazin-1-yl]-2H-pyrano[2,3-b]pyridin-2-one] | ≤ 0.1 µM | **** (an EC1.5×≦0.3 μM is indicated by four stars (****)) | **** (a fold increase between >1.5 and ≦1.65 is indicated by four stars (****))
5 | Cc1ccc2nc(-c3cc4ccc(N5CCN[C@H](C)C5)nc4oc3=O)cn2c1 [Cpd 73, 3-(6-methylimidazo[1,2-a]pyridin-2-yl)-7-[(3R)-3-methylpiperazin-1-yl]-2H-pyrano[2,3-b]pyridin-2-one] | 0.1 to 0.3 µM | ** (an EC1.5× between >1 and ≦3 μM is indicated by two stars (**)) | *** (a fold increase between >1.35 and ≦1.5 is indicated by three stars (***))
6 | C[C@H]1CN(c2ccc3cc(-c4cn5ccccc5n4)c(=O)oc3n2)CCN1.Cl [Cpd 79, 3-(imidazo[1,2-a]pyridin-2-yl)-7-[(3S)-3-methylpiperazin-1-yl]-2H-pyrano[2,3-b]pyridin-2-one hydrochloride] | ≤ 0.1 µM | **** (an EC1.5×≦0.3 μM is indicated by four stars (****)) | ***** (a fold increase >1.65 is indicated by five stars (*****))
7 | C[C@@H]1CN(c2ccc3cc(-c4cn5ccccc5n4)c(=O)oc3n2)CCN1.Cl [Cpd 80, 3-(imidazo[1,2-a]pyridin-2-yl)-7-[(3R)-3-methylpiperazin-1-yl]-2H-pyrano[2,3-b]pyridin-2-one hydrochloride] | ≤ 0.1 µM | **** (an EC1.5×≦0.3 μM is indicated by four stars (****)) | **** (a fold increase between >1.5 and ≦1.65 is indicated by four stars (****))
8 | C[C@H]1CN(c2ccc3cc(-c4cn5ccsc5n4)c(=O)oc3n2)CCN1.Cl [Cpd 83, 3-(imidazo[2,1-b][1,3]thiazol-6-yl)-7-[(3S)-3-methylpiperazin-1-yl]-2H-pyrano[2,3-b]pyridin-2-one hydrochloride] | ≤ 0.1 µM | **** (an EC1.5×≦0.3 μM is indicated by four stars (****)) | **** (a fold increase between >1.5 and ≦1.65 is indicated by four stars (****))
9 | C[C@@H]1CN(c2ccc3cc(-c4cn5ccsc5n4)c(=O)oc3n2)CCN1.Cl [Cpd 84, 3-(imidazo[2,1-b][1,3]thiazol-6-yl)-7-[(3R)-3-methylpiperazin-1-yl]-2H-pyrano[2,3-b]pyridin-2-one hydrochloride] | ≤ 0.1 µM | **** (an EC1.5×≦0.3 μM is indicated by four stars (****)) | ***** (a fold increase >1.65 is indicated by five stars (*****))
10 | Cc1ccn2cc(-c3cc4ccc(N5C[C@H](C)NC[C@H]5C)nc4oc3=O)nc2c1 [Cpd 88, 7-[(2R,5S)-2,5-dimethylpiperazin-1-yl]-3-(7-methylimidazo[1,2-a]pyridin-2-yl)-2H-pyrano[2,3-b]pyridin-2-one] | ≤ 0.1 µM | **** (an EC1.5×≦0.3 μM is indicated by four stars (****)) | **** (a fold increase between >1.5 and ≦1.65 is indicated by four stars (****))
11 | Cc1ccc2nc(-c3cc4ccc(N5C[C@H](C)N(C)C[C@H]5C)nc4oc3=O)cn2c1 [Cpd 93, 3-(6-methylimidazo[1,2-a]pyridin-2-yl)-7-[(2R,5S)-2,4,5-trimethylpiperazin-1-yl]-2H-pyrano[2,3-b]pyridin-2-one] | 0.3 to 1 µM | – | *** (a fold increase between >1.35 and ≦1.5 is indicated by three stars (***))
12 | Cc1cn2cc(-c3cc4ccc(N5C[C@H](C)NC[C@H]5C)nc4oc3=O)nc2cn1 [Cpd 102, 7-[(2R,5S)-2,5-dimethylpiperazin-1-yl]-3-(6-methylimidazo[1,2-a]pyrazin-2-yl)-2H-pyrano[2,3-b]pyridin-2-one] | ≤ 0.1 µM | **** (an EC1.5×≦0.3 μM is indicated by four stars (****)) | ***** (a fold increase >1.65 is indicated by five stars (*****))
